Test results reported in PubChem BioAssay AID1963862 (Molecular Pharmacology Branch, DTP, NCI, 2024).
pIC50: −log10 of the molar value.

Test system: KRAS patient-derived spheroids with HUVEC/MSC, viability
Test: Anticancer human tumor 941728-121-R-J1-PDC patient-derived lung adenocarcinoma cell line growth inhibition [KRAS2]
Details: for pIC50: curve of first compound; for viability, T/C: stronger effect = lower value
Procedure, shortened: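 Combination screen of spheroid viability in tumor-cell co-cultures with endothelial (HUVEC) and mesenchymal stem cell stroma. Each agent was tested in half-log dilutions, topping at clinical Cmax or at 10 microM without a known Cmax.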

[1] = second compound 0.1 µM, first compound 0.000316 µM
[2] = second compound 0.1 µM, first compound 0.001 µM
[3] = second compound 0.1 µM, first compound 0.00316 µM
[4] = second compound 0.1 µM, first compound 0.01 µM
[5] = second compound 0.1 µM, first compound 0.0316 µM
[6] = second compound 0.1 µM, first compound 0.1 µM
[7] = second compound 0.316 µM, first compound 0.000316 µM
[8] = second compound 0.316 µM, first compound 0.001 µM
[9] = second compound 0.316 µM, first compound 0.00316 µM
[10] = second compound 0.316 µM, first compound 0.01 µM
[11] = second compound 0.316 µM, first compound 0.0316 µM
[12] = second compound 0.316 µM, first compound 0.1 µM
[13] = second compound 1 µM, first compound 0.000316 µM
[14] = second compound 1 µM, first compound 0.001 µM
[15] = second compound 1 µM, first compound 0.00316 µM
[16] = second compound 1 µM, first compound 0.01 µM
[17] = second compound 1 µM, first compound 0.0316 µM
[18] = second compound 1 µM, first compound 0.1 µM
[19] = second compound 3.16 µM, first compound 0.000316 µM
[20] = second compound 3.16 µM, first compound 0.001 µM
[21] = second compound 3.16 µM, first compound 0.00316 µM
[22] = second compound 3.16 µM, first compound 0.01 µM
[23] = second compound 3.16 µM, first compound 0.0316 µM
[24] = second compound 3.16 µM, first compound 0.1 µM
[25] = second compound 10 µM, first compound 0.000316 µM
[26] = second compound 10 µM, first compound 0.001 µM
[27] = second compound 10 µM, first compound 0.00316 µM
[28] = second compound 10 µM, first compound 0.01 µM
[29] = second compound 10 µM, first compound 0.0316 µM
[30] = second compound 10 µM, first compound 0.1 µM
[31] = second compound 0.1 µM, first compound 0.316 µM
[32] = second compound 0.1 µM, first compound 1 µM
[33] = second compound 0.1 µM, first compound 3.16 µM
[34] = second compound 0.1 µM, first compound 10 µM
[35] = second compound 0.316 µM, first compound 0.316 µM
[36] = second compound 0.316 µM, first compound 1 µM
[37] = second compound 0.316 µM, first compound 3.16 µM
[38] = second compound 0.316 µM, first compound 10 µM
[39] = second compound 1 µM, first compound 0.316 µM
[40] = second compound 1 µM, first compound 1 µM
[41] = second compound 1 µM, first compound 3.16 µM
[42] = second compound 1 µM, first compound 10 µM
[43] = second compound 3.16 µM, first compound 0.316 µM
[44] = second compound 3.16 µM, first compound 1 µM
[45] = second compound 3.16 µM, first compound 3.16 µM
[46] = second compound 3.16 µM, first compound 10 µM
[47] = second compound 10 µM, first compound 0.316 µM
[48] = second compound 10 µM, first compound 1 µM
[49] = second compound 10 µM, first compound 3.16 µM
[50] = second compound 10 µM, first compound 10 µM
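Note: spheroids exposed to agents for seven days before readout.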

Compound | pIC50 (second compound 0.1 µM) | pIC50 (second compound 0.316 µM) | pIC50 (second compound 1 µM) | pIC50 (second compound 3.16 µM) | pIC50 (second compound 10 µM) | viability, T/C [1] [%] | viability, T/C [2] [%] | viability, T/C [3] [%] | viability, T/C [4] [%] | viability, T/C [5] [%] | viability, T/C [6] [%] | viability, T/C [7] [%] | viability, T/C [11] [%] | viability, T/C [12] [%] | viability, T/C [17] [%] | viability, T/C [18] [%] | viability, T/C [23] [%] | viability, T/C [24] [%] | viability, T/C [29] [%] | viability, T/C [30] [%] | other results
CC(C)n1nc(-c2ccc3oc(N)nc3c2)c2c(N)ncnc21 + CC1OCC2(CCN(c3cnc(Sc4ccnc(N)c4Cl)c(N)n3)CC2)C1N | > 9.50 | > 9.50 | > 9.50 | > 9.50 | > 9.50 | 40.7 | 30.6 | 17.2 | 12.1 | 8.84 | 6.47 | 31 | 9.93 | 5.71 | 8.27 | 5.69 | 3.72 | 3.13 | 3.77 | 1.91 | viability, T/C [8]: 24.8%; viability, T/C [9]: 16.8%; viability, T/C [10]: 11.5%; viability, T/C [13]: 25.2%; viability, T/C [14]: 20.3%; viability, T/C [15]: 12%; viability, T/C [16]: 8.84%; viability, T/C [19]: 17.6%; viability, T/C [20]: 16.4%; viability, T/C [21]: 9.88%; viability, T/C [22]: 5.58%; viability, T/C [25]: 11.4%; viability, T/C [26]: 11.2%; viability, T/C [27]: 6.08%; viability, T/C [28]: 4.41%
CC1(C)CCC(CN2CCN(c3ccc(C(=O)NS(=O)(=O)c4ccc(NCC5CCOCC5)c([N+](=O)[O-])c4)c(Oc4cnc5[nH]ccc5c4)c3)CC2)=C(c2ccc(Cl)cc2)C1 + CC1OCC2(CCN(c3cnc(Sc4ccnc(N)c4Cl)c(N)n3)CC2)C1N | > 7.50 | > 7.50 | > 7.50 | > 7.50 | > 7.50 | – | – | – | – | 38.4 | 30.5 | – | 32.1 | 24.3 | 29 | 26.9 | 28.4 | 24.7 | 20.1 | 23.8 | viability, T/C [31]: 32.1%; viability, T/C [32]: 31.2%; viability, T/C [33]: 6.63%; viability, T/C [34]: 2.32%; viability, T/C [35]: 29%; viability, T/C [36]: 34.3%; viability, T/C [37]: 5.9%; viability, T/C [38]: 1.62%; viability, T/C [39]: 26.1%; viability, T/C [40]: 27.3%; viability, T/C [41]: 5.85%; viability, T/C [42]: 2.94%; viability, T/C [43]: 23.7%; viability, T/C [44]: 20.8%; viability, T/C [45]: 5.87%; viability, T/C [46]: 1.91%; viability, T/C [47]: 23.2%; viability, T/C [48]: 19.2%; viability, T/C [49]: 3.98%; viability, T/C [50]: 0.4%
COc1cc2nccc(Oc3ccc(NC(=O)C4(C(=O)Nc5ccc(F)cc5)CC4)cc3)c2cc1OC + CC1OCC2(CCN(c3cnc(Sc4ccnc(N)c4Cl)c(N)n3)CC2)C1N | > 7.50 | > 7.50 | > 7.50 | > 7.50 | > 7.50 | – | – | – | – | 48.9 | 40 | – | 28.8 | 26.2 | 25.3 | 25.9 | 25.3 | 20.1 | 20.7 | 14.8 | viability, T/C [31]: 31.5%; viability, T/C [32]: 29.4%; viability, T/C [33]: 34.2%; viability, T/C [34]: 26.9%; viability, T/C [35]: 29%; viability, T/C [36]: 27.8%; viability, T/C [37]: 14.6%; viability, T/C [38]: 16.6%; viability, T/C [39]: 24.1%; viability, T/C [40]: 15.5%; viability, T/C [41]: 8.65%; viability, T/C [42]: 7.11%; viability, T/C [43]: 11.7%; viability, T/C [44]: 12%; viability, T/C [45]: 7.91%; viability, T/C [46]: 4.69%; viability, T/C [47]: 12.2%; viability, T/C [48]: 8.99%; viability, T/C [49]: 4.63%; viability, T/C [50]: 4.36%
Cn1ncnc1[C@H]1c2n[nH]c(=O)c3cc(F)cc(c23)N[C@@H]1c1ccc(F)cc1 + CC1OCC2(CCN(c3cnc(Sc4ccnc(N)c4Cl)c(N)n3)CC2)C1N | 9.48 | > 9.50 | > 9.50 | > 9.50 | > 9.50 | 49.5 | 50 | 43.2 | 44.7 | 44.2 | 46.5 | 37.7 | 28.1 | 28.1 | 19.2 | 26.4 | 14.4 | 19.3 | 18.3 | 14.7 | viability, T/C [8]: 28.5%; viability, T/C [9]: 26.1%; viability, T/C [10]: 32.7%; viability, T/C [13]: 28.7%; viability, T/C [14]: 25.9%; viability, T/C [15]: 22.2%; viability, T/C [16]: 20.6%; viability, T/C [19]: 26.6%; viability, T/C [20]: 24.8%; viability, T/C [21]: 25.3%; viability, T/C [22]: 20%; viability, T/C [25]: 23.8%; viability, T/C [26]: 21.5%; viability, T/C [27]: 19.9%; viability, T/C [28]: 18.9%
